Consider 21 molecules from US7528136B2, “Prolinamide derivatives as NK3 antagonists” (Hoffmann-La Roche Inc., priority 2007, dated 2009).

The target of the first test is T1, recombinant human NK3 receptor (Homo sapiens, UniProt P29371).
T1 construct: expressed in transfected cells; host or cells: HEK293 cells (transient expression), membranes
T1 sequence (P29371 1-465): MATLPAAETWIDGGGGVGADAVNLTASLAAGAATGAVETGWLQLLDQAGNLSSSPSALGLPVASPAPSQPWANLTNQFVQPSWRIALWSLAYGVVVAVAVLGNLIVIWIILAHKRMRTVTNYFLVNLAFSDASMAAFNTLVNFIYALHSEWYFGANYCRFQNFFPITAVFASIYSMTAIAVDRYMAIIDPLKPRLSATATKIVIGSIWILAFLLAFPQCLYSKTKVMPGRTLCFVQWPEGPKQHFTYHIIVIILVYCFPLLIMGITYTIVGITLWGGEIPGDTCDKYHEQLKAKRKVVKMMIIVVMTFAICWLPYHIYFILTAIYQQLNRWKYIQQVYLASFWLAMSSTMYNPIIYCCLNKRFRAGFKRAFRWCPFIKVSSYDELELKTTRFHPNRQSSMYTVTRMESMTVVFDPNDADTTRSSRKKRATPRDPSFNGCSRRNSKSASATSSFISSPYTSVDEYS
Put plainly: [3H]SR142801 competition binding assay. The following applies: [3H]SR142801, membranes from HEK293 cells transiently expressing hNK3; read-out: Data (hNK-3 receptor affinity). How it is done: [^3H]SR142801 Competition Binding Assay
hNK3 receptor binding experiment were performed using [^3H]SR142801 (Catalog No. TRK1035, specific activity: 74.0 Ci/mmol, Amersham, GE Healthcare UK limited, Buckinghamshire, UK) and membrane isolated from HEK293 cells transiently expressing recombinant human NK3 receptor. After thawing, the membrane homogenates were centrifuged at 48,000×g for 10 min at 4° C., the pellets were resuspended in the 50 mM Tris-HCl, 4 mM MnCl2, 1 μM phosphoramidon, 0.1% BSA binding buffer at pH 7.4 to a final assay concentration of 5 μg protein/well. For inhibition experiments, membranes were incubated with [^3H]SR142801 at a concentration equal to KD value of radioligand and 10 concentrations of the inhibitory compound (0.0003-10 μM) (in a total reaction volume of 500 μl) for 75 min at room temperature (RT). At the end of the incubation, membranes were filtered onto unitfilter (96-well white microplate with bonded GF/C filter preincubated 1 h in 0.3% PEI+0.3% BSA, Packard BioScience, Meriden, Conn.) with a Filtermate 196 harvester (Packard BioScience) and washed 4 times with ice-cold 50 mM Tris-HCl, pH 7.4 buffer. Nonspecific binding was measured in the presence of 10 μM SB222200 for both radioligands. The radioactivity on the filter was counted (5 min) on a Packard Top-count microplate scintillation counter with quenching correction after addition of 45 μl of microscint 40 (Can berra Packard S. A., Zürich, Switzerland) and shaking for 1 h. Inhibition curves were fitted according to the Hill equation: y=100/(1+(x/IC50)^nH), where nH=slope factor using Excel-fit 4 software (Microsoft). IC50 values were derived from the inhibition curve and the affinity constant (Ki) values were calculated using the Cheng-Prussoff equation Ki=IC50/(1+[L]/KD) where [L] is the concentration of radioligand and KD is its dissociation constant at the receptor, derived from the saturation isotherm. All experiments were performed in duplicate and the mean±standard error (SEM) of the individual Ki values was calculated.
Regarding `N#Cc1ccccc1N1CCN(C(=O)C2CC(NCc3ccc(F)cc3F)CN2Cc2cccc(F)c2)CC1` (stereo not shown) [Example 54, 2-{4-[4-(2,4-Difluoro-benzylamino)-1-(3-fluoro-benzyl)-pyrrolidine-2-carbonyl]-piperazin-lyl}-benzonitrile], the Ki was determined as 47 nM. Same read-out and setting: the result for `N#Cc1ccccc1N1CCN(C(=O)[C@@H]2C[C@@H](NCc3ccc(F)cc3F)CN2Cc2ccccc2)CC1` [Example 88, 2-{4-[(2S,4R)-1-Benzyl-4-(2,4-difluoro-benzylamino)-pyrrolidine-2-carbonyl]-piperazin-1-yl}-benzonitrile] reads 97 nM; that for `O=C([C@@H]1C[C@H](NCc2ccc(F)cc2F)CN1Cc1ccccc1)N1CCN(c2ccccc2)CC1` [Example 7, [(2S,4S)-1-Benzyl-4-(2,4-difluoro-benzylamino)-pyrrolidin-2-yl]-(4-phenyl-piperazin-1-yl)-methanone], 63 nM; that for `N#Cc1ccccc1N1CCN(C(=O)[C@@H]2C[C@H](NCc3ccc(F)c(Cl)c3)CN2Cc2ccccc2)CC1` [Example 45, 2-{4-[(2S,4S)-1-Benzyl-4-(3-chloro-4-fluoro-benzylamino)-pyrrolidine-2-carbonyl]-piperazin-1-yl}-benzonitrile], 27.9 nM. Still for that read-out and setting: with `N#Cc1ccccc1N1CCN(C(=O)[C@@H]2C[C@H](NCc3cccc(Cl)c3F)CN2Cc2ccccc2)CC1` [Example 49, 2-{4-[(2S,4S)-1-Benzyl-4-(3-chloro-2-fluoro-benzylamino)-pyrrolidine-2-carbonyl]-piperazin-1-yl}-benzonitrile] the figure was 48 nM; with `O=C([C@@H]1C[C@H](NCc2ccc(F)cc2F)CN1Cc1ccccc1)N1CCN(c2cccc(C(F)(F)F)c2)CC1` [Example 5, [(2S,4S)-1-Benzyl-4-(2,4-difluoro-benzylamino)-pyrrolidin-2-yl]-[4-(3-trifluoromethyl-phenyl)-piperazin-1-yl]-methanone], 37.6 nM. `O=C([C@@H]1C[C@H](NCc2ccc(F)cc2F)CN1Cc1ccccc1)N1CCN(c2ccc(F)cc2)CC1` [Example 8, [(2S,4S)-1-Benzyl-4-(2,4-difluoro-benzylamino)-pyrrolidin-2-yl]-[4-(4-fluoro-phenyl)-piperazin-1-yl]-methanone]: the Ki stood at 64.8 nM. The same measure, in the same setting: the result for `CN(Cc1cc(C(F)(F)F)cc(C(F)(F)F)c1)[C@H]1C[C@@H](C(=O)N2CCN(c3ccccc3C#N)CC2)N(Cc2ccccc2)C1` [Example 32, 2-(4-{(2S,4S)-1-Benzyl-4-[(3,5-bis-trifluoromethyl-benzyl)-methyl-amino]-pyrrolidine-2-carbonyl}-piperazin-1-yl)-benzonitrile] reads 64.4 nM.

As to `N#Cc1ccccc1N1CCN(C(=O)[C@@H]2C[C@H](NCc3ccc(F)cc3F)CN2Cc2ccccc2)CC1` [Example 1, 2-{4-[(2S,4S)-1-Benzyl-4-(2,4-difluoro-benzylamino)-pyrrolidine-2-carbonyl]-piperazin-1-yl}-benzonitrile], the Ki amounted to 12.2 nM. Same read-out and setting: with `CN(Cc1cc(C(F)(F)F)cc(C(F)(F)F)c1)[C@H]1C[C@@H](C(=O)N2CCN(c3cccc(C(F)(F)F)c3)CC2)N(Cc2ccccc2)C1` [Example 62, {(2S,4S)-1-Benzyl-4-[(3,5-bis-trifluoromethyl-benzyl)-methyl-amino]-pyrrolidin-2-yl}-[4-(3-trifluoromethyl-phenyl)-piperazin-1-yl]-methanone] the figure was 39 nM; with `N#Cc1ccccc1N1CCN(C(=O)[C@@H]2C[C@H](NCc3ccc(Cl)c(Cl)c3)CN2Cc2ccccc2)CC1` [Example 48, 2-{4-[(2S,4S)-1-Benzyl-4-(3,4-dichloro-benzylamino)-pyrrolidine-2-carbonyl]-piperazin-1-yl}-benzonitrile], 29 nM; with `N#Cc1ccccc1N1CCN(C(=O)[C@@H]2C[C@H](NCc3cc(C(F)(F)F)ccc3Cl)CN2Cc2ccccc2)CC1` [Example 38, 2-{4-[(2S,4S)-1-Benzyl-4-(2-chloro-5-trifluoromethyl-benzylamino)-pyrrolidine-2-carbonyl]-piperazin-1-yl}-benzonitrile], 58 nM.

`CN(Cc1cc(C(F)(F)F)cc(C(F)(F)F)c1)[C@H]1C[C@@H](C(=O)N2CCN(c3cccc(C(F)(F)F)c3)CC2)N(Cc2cccc(Cl)c2)C1` [Example 68, [(2S,4S)-4-[(3,5-Bis-trifluoromethyl-benzyl)-methyl-amino]-1-(3-chloro-benzyl)-pyrrolidin-2-yl]-[4-(3-trifluoromethyl-phenyl)-piperazin-1-yl]-methanone]: the Ki was found to be 41.2 nM. With `N#Cc1ccccc1N1CCN(C(=O)[C@@H]2C[C@H](NCc3ccccc3C(F)(F)F)CN2Cc2ccccc2)CC1` [Example 36, 2-{4-[(2S,4S)-1-Benzyl-4-(2-trifluoromethyl-benzylamino)-pyrrolidine-2-carbonyl]-piperazin-1-yl}-benzonitrile], the Ki came out at 94.8 nM. On the same count and under the same terms, with `O=C([C@@H]1C[C@H](NCc2ccc(F)cc2F)CN1Cc1ccccc1)N1CCN(c2ccccc2Cl)CC1` [Example 10, [(2S,4S)-1-Benzyl-4-(2,4-difluoro-benzylamino)-pyrrolidin-2-yl]-[4-(2-chloro-phenyl)-piperazin-1-yl]-methanone] the figure was 56.7 nM; with `COc1ccccc1N1CCN(C(=O)[C@@H]2C[C@H](NCc3ccc(F)cc3F)CN2Cc2ccccc2)CC1` [Example 12, [(2S,4S)-1-Benzyl-4-(2,4-difluoro-benzylamino)-pyrrolidin-2-yl]-[4-(2-methoxy-phenyl)-piperazin-1-yl]-methanone], 23.5 nM; with `COc1cc(CN[C@H]2C[C@@H](C(=O)N3CCN(c4ccccc4C#N)CC3)N(Cc3ccccc3)C2)cc(OC)c1` [Example 34, 2-{4-[(2S,4S)-1-Benzyl-4-(3,5-dimethoxy-benzylamino)-pyrrolidine-2-carbonyl]-piperazin-1-yl}-benzonitrile], 44 nM. Same read-out and setting: with `O=C([C@@H]1C[C@@H](NCc2ccc(F)cc2F)CN1Cc1ccccc1)N1CCN(c2cccc(C(F)(F)F)c2)CC1` [Example 87, [(2S,4R)-1-Benzyl-4-(2,4-difluoro-benzylamino)-pyrrolidin-2-yl]-[4-(3-trifluoromethyl-phenyl)-piperazin-1-yl]-methanone] the figure was 52 nM; with `N#Cc1ccccc1N1CCN(C(=O)[C@@H]2C[C@H](NCc3cccc(Cl)c3)CN2Cc2ccccc2)CC1` [Example 40, 2-{4-[(2S,4S)-1-Benzyl-4-(3-chloro-benzylamino)-pyrrolidine-2-carbonyl]-piperazin-1-yl}-benzonitrile], 71 nM; with `COc1cc2c(cc1OC)CN(C(=O)[C@@H]1C[C@H](NCc3ccc(F)cc3F)CN1Cc1ccccc1)CC2` [Example 13, [(2S,4S)-1-Benzyl-4-(2,4-difluoro-benzylamino)-pyrrolidin-2-yl]-(6,7-dimethoxy-3,4-dihydro-1H-isoquinolin-2-yl)-methanone], 39.4 nM.

The next test concerns schizophrenia.
Experiment: not given
To be noted: phase II trial; altered behavior, delusion, hallucinations, extreme emotions, excited motor activity, incoherent speech; cited from earlier work.
Consider `CC(=O)N(C)C1(c2ccccc2)CCN(CCC[C@]2(c3ccc(Cl)c(Cl)c3)CCCN(C(=O)c3ccccc3)C2)CC1` [SR 142,801, Osanetant], for which the “activity on positive symptoms of schizophrenia” value is listed as “active”.

Still in this test, the particulars now being: phase II trial; depression, anhedonia, social isolation, memory and attention deficits; cited from earlier work.
Take `CC(=O)N(C)C1(c2ccccc2)CCN(CCC[C@]2(c3ccc(Cl)c(Cl)c3)CCCN(C(=O)c3ccccc3)C2)CC1` [SR 142,801, Osanetant]: the “activity in the treatment of negative symptoms” value is “inactive”.
